In patent US20240398989A1, “METHODS AND COMPOSITIONS FOR DIAGNOSIS AND TREATMENT OF METABOLIC DISORDERS” (The Broad Institute, Inc., priority 2021, published 2024):

Test system: primary human hepatocytes (PHH)
Experiment: LipocyteProfiler of drug-treated primary human hepatocytes
Type: cell-based
Settings: for appearance of the cytoskeleton, Golgi and plasma membrane (AGP Texture_AngularSecondMoment): 5 mM metformin for 24h vs control, p=9.96e-08
Protocol: Primary human hepatocytes (PHH) were purchased from BioIVT. Donor lot YNZ was used in this study. PHH were thawed and immediately resuspended in CP media (BioIVT) supplemented with torpedo antibiotic (BioIVT). Cell count and viability were assessed by trypan blue exclusion test prior to plating. […] Four hours after plating, media was replaced with fresh CP media. After 24 h, media was replaced with fresh CP media or CP media containing oleic acid (0.3 mM) or metformin (5 mM). Hepatocytes were incubated for an additional 24 h prior to processing. Human primary AMSCs and PHH were plated in 96-well CellCarrier plates (Perkinelmer #6005550). […] Primary human hepatocytes were stained after 48 h in culture, and 24h following treatment with oleic acid or metformin. On the respective day of the assay, cell culture media was removed and replaced by 0.5 μM Mitotracker staining solution (1 mM MitoTracker Deep Red stock (Invitrogen #M22426) diluted in culture media) to each well followed by 30 minutes incubation at 37° C.' protected from light. […] PFA was removed and cells were washed once with Hank's Balanced Salt Solution (1×), HBSS (Gibco #14025076). […] Finally, staining solution was removed and cells were washed three times with HBSS. Cells were imaged using a Opera Phenix High content screening system. […] Prior to processing, flat field illumination correction was performed using functions generated from the median intensity across each plate. Nuclei were identified using the DAPI stain and then expanded to identify whole cells using the Phalloidin/WGA and BODIPY stains. Regions of cytoplasm were then determined by removing the Nuclei from the Cell segmentations. Speckles of BODIPY staining were enhanced to assist in detection of small and large individual Lipid objects. For each object set measurements were collected representing size, shape, intensity, granularity, texture, colocalization and distance to neighbouring objects. After LipocyteProfiler (LP) feature extraction data was filtered by applying automated and manual quality control steps. […] Second, every field was assessed visually and fields that were corrupted by experimental induced technical artifacts were removed. Furthermore, blocklisted features (Way, Gregory (2019): Blocklist Features-Cell Profiler. figshare. […] After filtering data were normalised per plate using a robust scaling approach (Pedregosa et al. 2011) that subtracts the median from each variable and divides it by the interquartile range. Individual wells were aggregated for downstream analysis by cell depot and day of differentiation.

[1] = PHH metformin treatment (5 mM, 24h), t-test

CN(C)C(=N)N=C(N)N [metformin]
Nuclei_Intensity_IntegratedIntensityEdge_AGP t-statistics [1]: −8.2E+00 | Nuclei_Intensity_IntegratedIntensityEdge_DNA t-statistics [1]: −1.8E+01 | Nuclei_Intensity_IntegratedIntensityEdge_Mito t-statistics [1]: 5.3E+00 | Nuclei_Intensity_IntegratedIntensity_DNA t-statistics [1]: −1.3E+01 | Nuclei_Intensity_IntegratedIntensity_Lipid t-statistics [1]: −5.7E+00 | Nuclei_Intensity_IntegratedIntensity_Mito t-statistics [1]: 7.3E+00 | Nuclei_Intensity_LowerQuartileIntensity_AGP t-statistics [1]: −1.4E+01 | Nuclei_Intensity_LowerQuartileIntensity_DNA t-statistics [1]: −1.9E+01 | Nuclei_Intensity_LowerQuartileIntensity_Lipid t-statistics [1]: −5.4E+00 | Nuclei_Intensity_LowerQuartileIntensity_Mito t-statistics [1]: 7.7E+00 | Nuclei_Intensity_MADIntensity_AGP t-statistics [1]: −2.2E+01 | Nuclei_Intensity_MADIntensity_DNA t-statistics [1]: 4.7E+00 | Nuclei_Intensity_MADIntensity_Mito t-statistics [1]: 1.2E+01 | Nuclei_Intensity_MassDisplacement_AGP t-statistics [1]: 1.9E+01 | Nuclei_Intensity_MassDisplacement_DNA t-statistics [1]: 6.2E+01 | Nuclei_Intensity_MassDisplacement_Lipid t-statistics [1]: 2.6E+01 | Nuclei_Intensity_MassDisplacement_Mito t-statistics [1]: 1.2E+01 | Nuclei_Intensity_MaxIntensityEdge_AGP t-statistics [1]: −8.0E+00 | Nuclei_Intensity_MaxIntensityEdge_DNA t-statistics [1]: −1.3E+01 | Nuclei_Intensity_MaxIntensityEdge_Mito t-statistics [1]: 3.3E+00 | Nuclei_Intensity_MaxIntensity_AGP t-statistics [1]: −1.6E+01 | Nuclei_Intensity_MaxIntensity_Mito t-statistics [1]: 3.5E+00 | Nuclei_Intensity_MeanIntensityEdge_AGP t-statistics [1]: −8.2E+00 | Nuclei_Intensity_MeanIntensityEdge_DNA t-statistics [1]: −1.6E+01 | Nuclei_Intensity_MeanIntensityEdge_Mito t-statistics [1]: 5.2E+00 | Nuclei_Intensity_MeanIntensity_AGP t-statistics [1]: −1.6E+01 | Nuclei_Intensity_MeanIntensity_DNA t-statistics [1]: −9.5E+00 | Nuclei_Intensity_MeanIntensity_Lipid t-statistics [1]: −4.6E+00 | Nuclei_Intensity_MeanIntensity_Mito t-statistics [1]: 7.8E+00 | Nuclei_Intensity_MedianIntensity_AGP t-statistics [1]: −1.7E+01 | Nuclei_Intensity_MedianIntensity_DNA t-statistics [1]: −1.3E+01 | Nuclei_Intensity_MedianIntensity_Lipid t-statistics [1]: −4.5E+00 | Nuclei_Intensity_MedianIntensity_Mito t-statistics [1]: 8.9E+00 | Nuclei_Intensity_MinIntensityEdge_AGP t-statistics [1]: −7.5E+00 | Nuclei_Intensity_MinIntensityEdge_DNA t-statistics [1]: −1.6E+01 | Nuclei_Intensity_MinIntensityEdge_Lipid t-statistics [1]: −8.5E+00 | Nuclei_Intensity_MinIntensityEdge_Mito t-statistics [1]: 3.0E+00 | Nuclei_Intensity_MinIntensity_AGP t-statistics [1]: −7.8E+00 | Nuclei_Intensity_MinIntensity_DNA t-statistics [1]: −1.6E+01 | Nuclei_Intensity_MinIntensity_Lipid t-statistics [1]: −8.6E+00 | Nuclei_Intensity_MinIntensity_Mito t-statistics [1]: 4.5E+00 | Nuclei_Intensity_StdIntensityEdge_AGP t-statistics [1]: −7.5E+00 | Nuclei_Intensity_StdIntensityEdge_DNA t-statistics [1]: −1.0E+01 | Nuclei_Intensity_StdIntensityEdge_Lipid t-statistics [1]: 6.3E+00 | Nuclei_Intensity_StdIntensityEdge_Mito t-statistics [1]: 5.2E+00 | Nuclei_Intensity_StdIntensity_AGP t-statistics [1]: −1.8E+01 | Nuclei_Intensity_StdIntensity_DNA t-statistics [1]: 3.5E+00 | Nuclei_Intensity_StdIntensity_Mito t-statistics [1]: 6.1E+00 | Nuclei_Intensity_UpperQuartileIntensity_AGP t-statistics [1]: −1.8E+01 | Nuclei_Intensity_UpperQuartileIntensity_DNA t-statistics [1]: −5.7E+00 | Nuclei_Intensity_UpperQuartileIntensity_Lipid t-statistics [1]: −4.4E+00 | Nuclei_Intensity_UpperQuartileIntensity_Mito t-statistics [1]: 8.5E+00 | Nuclei_Location_CenterMassIntensity_Y_AGP t-statistics [1]: 4.1E+00 | Nuclei_Location_CenterMassIntensity_Y_DNA t-statistics [1]: 4.2E+00 | Nuclei_Location_CenterMassIntensity_Y_Lipid t-statistics [1]: 4.1E+00 | Nuclei_Location_CenterMassIntensity_Y_Mito t-statistics [1]: 4.2E+00 | Nuclei_Location_Center_Y t-statistics [1]: 4.2E+00 | Nuclei_Location_MaxIntensity_Y_AGP t-statistics [1]: 4.1E+00 | Nuclei_Location_MaxIntensity_Y_DNA t-statistics [1]: 4.2E+00 | Nuclei_Location_MaxIntensity_Y_Lipid t-statistics [1]: 4.1E+00 | Nuclei_Location_MaxIntensity_Y_Mito t-statistics [1]: 4.5E+00 | Nuclei_Neighbors_AngleBetweenNeighbors_2 t-statistics [1]: −2.2E+01 | Nuclei_Neighbors_FirstClosestDistance_2 t-statistics [1]: −3.5E+00 | Nuclei_Neighbors_FirstClosestObjectNumber_2 t-statistics [1]: −1.2E+01 | Nuclei_Neighbors_NumberOfNeighbors_2 t-statistics [1]: 1.9E+01 | Nuclei_Neighbors_PercentTouching_2 t-statistics [1]: 2.0E+01 | Nuclei_Neighbors_SecondClosestDistance_2 t-statistics [1]: 4.5E+00 | Nuclei_Neighbors_SecondClosestObjectNumber_2 t-statistics [1]: −1.2E+01 | Nuclei_Number_Object_Number t-statistics [1]: −1.2E+01 | Nuclei_Radial Distribution_MeanFrac_Mito_3of4 t-statistics [1]: 2.6E+01 | Nuclei_RadialDistribution_FracAtD_AGP_3of4 t-statistics [1]: −2.7E+01 | Nuclei_RadialDistribution_FracAtD_DNA_2of4 t-statistics [1]: 3.0E+01 | Nuclei_RadialDistribution_FracAtD_Lipid_1of4 t-statistics [1]: −1.2E+01 | Nuclei_RadialDistribution_FracAtD_Mito_3of4 t-statistics [1]: 2.4E+01 | Nuclei_RadialDistribution_MeanFrac_AGP_3of4 t-statistics [1]: −2.7E+01 | Nuclei_RadialDistribution_MeanFrac_DNA_2of4 t-statistics [1]: 3.8E+01 | Nuclei_RadialDistribution_MeanFrac_Lipid_2of4 t-statistics [1]: −7.9E+00 | Nuclei_RadialDistribution_RadialCV_AGP_3of4 t-statistics [1]: 2.5E+01 | Nuclei_RadialDistribution_RadialCV_DNA_3of4 t-statistics [1]: 9.7E+01 | Nuclei_RadialDistribution_RadialCV_Lipid_3of4 t-statistics [1]: 2.2E+01 | Nuclei_RadialDistribution_RadialCV_Mito_2of4 t-statistics [1]: 3.7E+01 | Nuclei_Texture_AngularSecondMoment_AGP_10_02 t-statistics [1]: 1.2E+01 | Nuclei_Texture_AngularSecondMoment_DNA_20_03 t-statistics [1]: 9.4E+00 | Nuclei_Texture_AngularSecondMoment_Lipid_5_03 t-statistics [1]: 4.2E+00 | Nuclei_Texture_AngularSecondMoment_Mito_5_02 t-statistics [1]: −1.8E+01 | Nuclei_Texture_Contrast_AGP_10_03 t-statistics [1]: −1.8E+01 | Nuclei_Texture_Contrast_DNA_5_01 t-statistics [1]: 5.8E+00 | Nuclei_Texture_Contrast_Lipid_20_02 t-statistics [1]: 4.3E+00 | Nuclei_Texture_Contrast_Mito_5_03 t-statistics [1]: 6.8E+00 | Nuclei_Texture_Correlation_AGP_10_03 t-statistics [1]: 3.0E+01 | Nuclei_Texture_Correlation_DNA_10_00 t-statistics [1]: −1.6E+01 | Nuclei_Texture_Correlation_Lipid_5_03 t-statistics [1]: 2.3E+01 | Nuclei_Texture_Correlation_Mito_5_02 t-statistics [1]: 1.5E+01 | Nuclei_Texture_DifferenceEntropy_AGP_10_00 t-statistics [1]: −2.1E+01 | Nuclei_Texture_DifferenceEntropy_DNA_10_03 t-statistics [1]: −8.0E+00 | Nuclei_Texture_DifferenceEntropy_Lipid_20_01 t-statistics [1]: 8.2E+00 | Nuclei_Texture_DifferenceEntropy_Mito_20_00 t-statistics [1]: 8.0E+00 | Nuclei_Texture_DifferenceVariance_AGP_10_00 t-statistics [1]: 1.4E+01 | Nuclei_Texture_DifferenceVariance_DNA_20_03 t-statistics [1]: 7.3E+00 | Nuclei_Texture_DifferenceVariance_Lipid_20_00 t-statistics [1]: 5.6E+00 | Nuclei_Texture_DifferenceVariance_Mito_10_00 t-statistics [1]: −8.1E+00 | Nuclei_Texture_Entropy_AGP_5_00 t-statistics [1]: −1.7E+01 | Nuclei_Texture_Entropy_DNA_10_03 t-statistics [1]: −7.7E+00 | Nuclei_Texture_Entropy_Lipid_20_01 t-statistics [1]: 7.3E+00 | Nuclei_Texture_Entropy_Mito_5_02 t-statistics [1]: 1.3E+01 | Nuclei_Texture_InfoMeas1_AGP_10_03 t-statistics [1]: 2.6E+01 | Nuclei_Texture_InfoMeas1_Lipid_20_03 t-statistics [1]: −8.6E+00 | Nuclei_Texture_InfoMeas2_DNA_10_03 t-statistics [1]: −1.3E+01 | Nuclei_Texture_InfoMeas2_Mito_5_01 t-statistics [1]: 1.3E+01 | Nuclei_Texture_InverseDifferenceMoment_AGP_10_00 t-statistics [1]: 2.1E+01 | Nuclei_Texture_InverseDifferenceMoment_DNA_20_03 t-statistics [1]: 1.5E+01 | Nuclei_Texture_InverseDifferenceMoment_Lipid_20_00 t-statistics [1]: 7.5E+00 | Nuclei_Texture_InverseDifferenceMoment_Mito_10_00 t-statistics [1]: −1.4E+01 | Nuclei_Texture_SumAverage_AGP_10_00 t-statistics [1]: −1.8E+01 | Nuclei_Texture_SumAverage_DNA_10_01 t-statistics [1]: −1.8E+01 | Nuclei_Texture_SumAverage_Lipid_10_00 t-statistics [1]: −6.6E+00 | Nuclei_Texture_SumAverage_Mito_20_00 t-statistics [1]: 8.5E+00 | Nuclei_Texture_SumEntropy_AGP_5_00 t-statistics [1]: −1.9E+01 | Nuclei_Texture_SumEntropy_DNA_10_03 t-statistics [1]: −7.8E+00 | Nuclei_Texture_SumEntropy_Lipid_20_01 t-statistics [1]: 8.0E+00 | Nuclei_Texture_SumEntropy_Mito_5_02 t-statistics [1]: 1.1E+01 | Nuclei_Texture_SumVariance_AGP_10_03 t-statistics [1]: −1.7E+01 | Nuclei_Texture_SumVariance_DNA_5_02 t-statistics [1]: 6.2E+00 | Nuclei_Texture_SumVariance_Lipid_20_01 t-statistics [1]: 6.0E+00 | Nuclei_Texture_SumVariance_Mito_5_02 t-statistics [1]: 7.3E+00 | Nuclei_Texture_Variance_AGP_10_03 t-statistics [1]: −1.8E+01 | Nuclei_Texture_Variance_DNA_5_00 t-statistics [1]: 5.8E+00 | Nuclei_Texture_Variance_Lipid_20_00 t-statistics [1]: 4.7E+00 | Nuclei_Texture_Variance_Mito_5_02 t-statistics [1]: 6.9E+00 | BODIPY Texture Entropy (PHH, 5 mM metformin for 24h, p 6.98e-04): difference | mitochondrial membrane potential (Mito MeanIntensity) (PHH, 5 mM metformin for 24h, p 0.0104): increased | cell size (AreaShape MinorAxislength) (PHH, 5 mM metformin for 24h, p=3.11e-12): smaller | cell size (AreaShape Area) (PHH, 5 mM metformin for 24h, p=3.87e-11): smaller | lipid droplet number (LargeBODIPYObjects_Count) (PHH, 5 mM metformin for 24h, p=2.37e-07): reduced | lipid content (BODIPY MeanIntensity) (PHH, 5 mM metformin for 24h, p=6.11e-06): reduced | mitochondrial fusion (Mito Texture_angularSecondMoment, Mito Texture Entropy, Mito Texture_InfoMeas1) (PHH, 5 mM metformin for 24h, p=7.58e-05, p=6.66e-06, p=2.17e-12): increased | appearance of the cytoskeleton, Golgi and plasma membrane (AGP Texture_AngularSecondMoment) (PHH): less uniform | appearance of the cytoskeleton, Golgi and plasma membrane (AGP Texture_AngularSecondMoment) (PHH, listed as Metformin): reduced cytoskeletal randomness
